Data on 1 molecule can be found in PMC9313812, “The Pseudo‐Natural Product Rhonin Targets RHOGDI” (Angewandte Chemie (International Ed. in English), 2022).

The structures appear in SMILES notation.

Assay [1] concerns the target T1, RHOGDI1 (Homo sapiens, UniProt P52565).
T1 construct: GST; made in house; host or cells: E. coli (XL1-Blue / BL21)
Nature of the assay: Limited proteolysis mass spectrometry (LiP-MS). The format is binding. The settings on record: 100 μM compound.

Assay [2] has as its system NIH/3T3 cells. Nature of the assay: Wound healing assay (cell migration). The format is cell-based. The settings on record: 10 µM Rhonin; 2 µg/ml RHO inhibitor I; purmorphamine 2 µM. As for the experimental part: Supplementary Figure S13. Influence of 10 µM Rhonin on cell migration in NIH/3T3 cells upon stimulation with purmorphamine (Purm, 2 µM). The RHO inhibitor I was used as a control. Cell migration was monitored by means of a wound healing assay. Data ar e representative of three independent experiments (n=3, N = 3), mean values ± SD. […]
40,000 x g for 30 min at 4°C. Supernatants were collected as cytoplasmic fraction and pellets were resuspended into a homogenization buffer (0.25 M sucrose, 20 mM Tris/HCl pH 7.4, 25 mM KCl, 5 mM MgCl2) and further centrifuged (2 h at 100,000 x g) using an iodixanol (OptiPrep, Axis Shield) gradient solution. Obtained fractions were used for immunoblotting.
NIH/3T3 cells were seeded in a 96 plate (10,000 cell per well/ plate name: Essen Bioscience NO 4379). NIH/3T3 cells were grown till 80% confluence and then serum starved (0 % FCS) for 24 h. […] Cell migration was monitored using IncuCyte ZOOM for a period of 48 h. The images were analyzed by the Incucyte Scratch Wound Analysis Software. […]
GTPase primary antibody (RAC1, CDC42 or RHOA) was added and the tubes and were incubated for 45 min at room temperature. […] Absorption was detected at 490 nm using a plate reader (Tecan Sparks).
Aqueous solubility of compounds was assessed by determination of the kinetic solubility of a test compound in aqueous buffer compared to a solution in organic solvent (acetonitrile). […]

Assay [3] has as its system Alpl expression in C3H10T1/2 cells. Nature of the assay: RT-qPCR of Alpl mRNA. The settings on record: 1.5 μM purmorphamine, 96 h. The format is cell-based, mouse. As for the experimental part: Supplementary Figure S6 (related to Figure 5). Characterization of compound 7l (Rhonin).
(a) GLI-responsive reporter gene assay in SHH-LIGHT2 cells. (b) Influence of Rhonin on the expression of Alpl. C3H10T1/2 cells were treated with 1.5 µM purmorphamine and the compounds for 96 h prior to RT-qPCR to detect Alpl mRNA levels. Data were normalzed to Gapdh and Ap3d1 gene levels and are mean values (n = 3) ± SD. (c) Detection of cilia in NIH/3T3 cells. NIH/3T3 cells were cultured in serum reduced (0.5 % FCS) medium for 24 h to induce cilia formation, followed by a pre-treatment of cells with different concentrations of 7l or Vismodegib or DMSO as a control in serum reduced medium. […]
projections, after previous background subtraction. For quantification, cilia were identified and […]
Smoothened antibody were measured within these areas. […]
significances were assessed using an unpaired t-test (confidence interval of 95%) with the […]
replicates were performed and for each replicate at least 100 cilia per condition were analyzed.
Reverse transcription- quantitative PCR (RT-qPCR) […]
DNase I digestion step. The concentration of purified RNA was determined by means of the […]
QuantiTect Reverse Transcription Kit (Qiagen) according to the manufacturer’s protocol. […]
determined by means of quantitative RT-PCR using the QuantiFast SYBR Green PCR Kit […]
Background: In qPCR the cycle at which signal appears reflects the starting amount.

T1 sequence (P52565 16-204): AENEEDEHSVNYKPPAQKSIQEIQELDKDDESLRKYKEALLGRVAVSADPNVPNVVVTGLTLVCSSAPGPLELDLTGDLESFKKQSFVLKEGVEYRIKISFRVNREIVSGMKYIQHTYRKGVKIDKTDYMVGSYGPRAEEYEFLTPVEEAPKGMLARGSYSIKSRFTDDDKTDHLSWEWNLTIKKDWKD

Regarding `COC(=O)C1(C(CC(=O)c2cccnc2)c2ccccc2)N=C(c2ccc(Br)cc2)C2C(=O)N(C)C(=O)C21` (stereo not drawn) [7l], the “Protection of RHOGDI1 peptides from proteinase K-mediated proteolysis (in words)” value in assay [1] is given as “several peptides in the 179–199 amino acid sequence were protected”. The “Wound closure / cell migration (in words)” value in assay [2] is given as “moderately inhibited wound closure”. In addition, the “Expression of the alkaline phosphatase gene Alpl (in words)” value in assay [3] is reported as “inhibited the expression of the alkaline phosphatase gene”.
